Here are results for one compound from ChEMBL document CHEMBL2073832, “Induction of cMrp/cMoat gene expression by cisplatin, 2-acetylaminofluorene, or cycloheximide in rat hepatocytes” (Hepatology, 1997).

The data set concerns the target ATP-binding cassette sub-family C member 2 (Rattus norvegicus, UniProt Q63120). Briefly: TP_TRANSPORTER: Northern blot from primary hepatocytes. The class given is functional, cell-based, Hepatocyte.

ATP-binding cassette sub-family C member 2, sequence (Q63120 whole entry): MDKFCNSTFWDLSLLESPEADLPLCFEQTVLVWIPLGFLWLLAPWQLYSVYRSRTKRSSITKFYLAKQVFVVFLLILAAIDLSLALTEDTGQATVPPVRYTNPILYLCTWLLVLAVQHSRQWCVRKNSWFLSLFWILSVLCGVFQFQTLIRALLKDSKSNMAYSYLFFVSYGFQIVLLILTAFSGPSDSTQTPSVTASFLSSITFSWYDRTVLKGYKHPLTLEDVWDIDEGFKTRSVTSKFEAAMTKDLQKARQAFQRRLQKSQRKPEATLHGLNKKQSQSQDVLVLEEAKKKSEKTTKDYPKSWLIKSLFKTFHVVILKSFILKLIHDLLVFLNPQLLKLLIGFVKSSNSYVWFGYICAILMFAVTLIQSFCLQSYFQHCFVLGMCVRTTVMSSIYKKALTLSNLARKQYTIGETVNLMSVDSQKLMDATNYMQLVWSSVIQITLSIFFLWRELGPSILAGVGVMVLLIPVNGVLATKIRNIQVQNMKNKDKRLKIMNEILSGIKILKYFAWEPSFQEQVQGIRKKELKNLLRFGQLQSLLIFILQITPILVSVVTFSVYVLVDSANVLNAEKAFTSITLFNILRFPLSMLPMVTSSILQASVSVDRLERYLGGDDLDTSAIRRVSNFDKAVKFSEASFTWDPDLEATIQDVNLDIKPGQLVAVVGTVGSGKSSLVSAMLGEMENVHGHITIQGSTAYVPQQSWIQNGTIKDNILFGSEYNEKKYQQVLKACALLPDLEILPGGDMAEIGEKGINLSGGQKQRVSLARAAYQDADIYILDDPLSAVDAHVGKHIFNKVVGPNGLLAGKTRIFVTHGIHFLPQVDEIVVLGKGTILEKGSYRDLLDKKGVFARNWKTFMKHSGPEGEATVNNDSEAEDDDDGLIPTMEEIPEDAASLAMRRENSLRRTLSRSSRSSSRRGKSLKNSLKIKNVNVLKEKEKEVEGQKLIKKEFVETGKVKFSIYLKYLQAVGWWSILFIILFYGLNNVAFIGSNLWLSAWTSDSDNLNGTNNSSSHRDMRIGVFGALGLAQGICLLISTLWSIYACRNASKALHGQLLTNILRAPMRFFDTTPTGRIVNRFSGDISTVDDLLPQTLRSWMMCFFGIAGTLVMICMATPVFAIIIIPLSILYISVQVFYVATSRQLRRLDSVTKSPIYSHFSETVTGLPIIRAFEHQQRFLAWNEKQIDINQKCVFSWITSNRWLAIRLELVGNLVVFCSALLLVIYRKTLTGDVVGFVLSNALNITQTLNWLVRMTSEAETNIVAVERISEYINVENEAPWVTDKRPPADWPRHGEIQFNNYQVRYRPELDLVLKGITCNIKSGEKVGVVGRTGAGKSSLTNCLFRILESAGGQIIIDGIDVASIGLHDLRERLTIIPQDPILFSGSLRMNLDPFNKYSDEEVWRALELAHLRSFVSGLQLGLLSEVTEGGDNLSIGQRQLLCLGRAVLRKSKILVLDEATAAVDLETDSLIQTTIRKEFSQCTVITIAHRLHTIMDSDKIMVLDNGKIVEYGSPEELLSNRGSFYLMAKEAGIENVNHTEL

Regarding `C[C@@H]1C[C@@H]([C@H](O)CC2CC(=O)NC(=O)C2)C(=O)[C@@H](C)C1` [CYCLOHEXIMIDE], the Activity entry is “inducer [+]”.
